Source: patent publication US12311011B2, “Des-acyl ghrelin and analogs as cancer therapies” (Cornell University, priority 2018, dated 2025)
Where no end group is shown, it is not given here. The star is where a group is joined. Octanoyl = CCCCCCCC(=O)*

How the values were obtained:
MCF7 cells = experiment: 3D/2D cell growth assay (cell number, Hoechst); format: cell-based, human; details: for serum-stimulated growth (cell number): 60 nM KT5720, 1.4 μM SQ22536, 15 μM cAMPs-RP
Protocol: (§1) Human BC Cells. Human breast cancer cell lines, MCF7, T47D, ZR75, MDA-MB-231, MDA-MB-468, SKBR3, Hs578T and HEK293T, DU4475 and MDA-MB-157 were purchased from ATCC, USA. Human 4-OH tamoxifen resistant breast cancer cells (LCC2), RKO, RKO-T29, RKO-A19, HCT116, HCT116-HWT, HCT116-HMUT were cultured using methods were performed as described previously (Yun et al., Science 325(5947):1555-9 (2009)). MCF7, MDA-MB-231, MDA-MB-468, MDA-MB-157, Hs578T, HEK293T were grown in DMEM (Invitrogen), supplemented with 10% fetal calf serum (FCS) (Invitrogen), 100U/ml penicillin/streptomycin and 1% sodium pyruvate. ZR75, T47D, SKBR3 and DU4475 were grown in RPMI, supplemented with 10% FCS, 100 U/ml penicillin/streptomycin and 2 mM L-Glutamine (ThermoFisher Scientific). LCC2 were grown in phenol red-free DMEM, supplemented with 10% charcoal stripped serum (CCS; ThermoFisher Scientific), 100 U/ml penicillin/streptomycin and 1% sodium pyruvate. All cell lines were grown at 37° C. with 5% CO2 in a humidified environment. Mycoplasma detection of all cell lines were tested and negative results were observed.
(§2) Cell Growth and Proliferation Assays. 3D culture of a panel of breast cancer and colon cancer cells were seeded at a density of 3,000 cells per well in media containing 30% growth-factor-reduced matrigel or 5 mg/ml Collagen in optical-bottom 96-well plates. Patient-derived breast tumors were first dissociated into single cell suspensions and seeded at a density of 32,000 cells per well in media containing 30% matrigel. […] At the end of the experimental time point, cells were fixed in 100% methanol. The total number of cells, or the number of dead or proliferating cells was assessed using Hoechst, EarlyTox Dead Assay Kit (Molecular Devices), or Click-IT EdU Kit (ThermoFisher Scientific), respectively, and analyzed according to the manufacturer's protocols. Cells were then imaged with >95% well coverage (magnification of 10× with 3×3 tiled images) per field using confocal microscopy. The number of nuclei/Ethidium Homodimer-III+/EdU+ cells were counted using Imaris software (Bitplane).

MDA-MB-468 cells = experiment: 3D/2D cell growth assay (cell number, Hoechst); format: cell-based, human; details: for forskolin-stimulated cell growth: 10 μM forskolin; for growth of MDA-MB-468 cells: 60 nM KT5720, 1.4 μM SQ22536, 15 μM cAMPs-RP; for cell growth in the presence of serum: 0.05-5 μM MK2206, 0.1-10 μM BKM120
Protocol: as §1, §2

MDA-MB-231 cells = experiment: 3D/2D cell growth assay (cell number, Hoechst); format: cell-based, human; details: for forskolin-stimulated cell growth: 10 μM forskolin, 3D; for cell growth in the presence of serum: 0.05-5 μM MK2206, 0.1-10 μM BKM120
[1] = system: ERK activity in EKAR-transfected MCF7 cells; experiment: ERK activity assay (EKAR FRET reporter); format: cell-based, human; details: 10% serum; 3D; time-lapse confocal
Protocol: ERK Activity Assay: The EKAR FRET-based system was used to monitor ERK activity. Briefly, breast cancer cells were co-transfected with pPBJ-puro-FRET3-EKAR-nls and the pCMV-hyPBase transposase vector, and stably transfected cells selected using FACS for EYFP and ECFP-positive cells. Cells were then cultured in 3D and serum-starved overnight. Prior live cell time-lapse confocal imaging, medium was replaced with 100 pM unacylated ghrelin and 10% serum. Images were acquired following FRET and analyzed using Imaris software. Data normalized to ECFP signal.

J110 allografts = experiment: Syngeneic allograft in FVB/N mice; format: in vivo, mouse; details: AZP531 200 μg/kg s.c.; 7 days; FVB mice
Protocol: (§3) Animal Experimental Model. All animal experiments were performed in Monash Animal Research Platform at Hudson Institute for Medical Research and Research Animal Resource Center at Weill Cornell Medicine. Experimental procedures were in accordance with guidelines for Animal Care and Use, approved by Monash University Animal Ethics Committee (MMCA2014/20) and Weill Cornell Medicine IACUC Protocol (REQ00016929). Athymic Balb/c nude, FVB/N (Animal Resources Centre, Australia) and NSG (NOD Scid gamma; NOD.CgPrkdcscidIl2rgtmlwjl/SzJ) mice (The Jackson laboratory and Monash Breeding Colony platform) were used for this study. All mouse procedures were performed with 6-8 weeks old female mice and treatments administered via subcutaneous injection. See additional details included herein for specific in vivo experimental procedures.
A syngeneic breast cancer mouse model was created in female FVB/N mice. 1.25×10^5 J110 cells were injected into the mammary fat pad of 6-week old FVB (Immunocompetent) mice. […]
Measurement of Apoptotic Cells from Xenograft/Allograft Studies. MCF7, ZR75 and J110 tumor sections post treatment with 100 μg/kg or 200 μg/kg of unacylated ghrelin were assessed using Hoechst nuclear stain and confocal microscopy. Quantification of cells with apoptotic nuclei was performed using Image J.

MDA-MB-468 xenografts = experiment: Xenograft in NSG mice; format: in vivo, mouse; details: 200 μg/kg s.c., 28 days
Protocol: as §3
Additional studies were also performed in NSG mice. MDA-MB-468 (1×10^6) were injected into the mammary fat pad of 6-week old NSG (immunodeficient) mice. Once the tumor reached a volume of 150 mm^3, the mice were randomized to receive saline (vehicle control) or AZP531 via subcutaneous injection. After 28 days of treatment, the mice were humanely sacrificed by cervical dislocation.

[2] = system: patient-derived breast cancer cells; experiment: 3D growth of patient-derived breast cancer cells; format: cell-based, human
Excerpt: Human BC Tissues and Preclinical Patient Derived Xenograft Models. Patient-derived breast tumors (PDX, (Zhang, et al., Cancer Res 15:4885-97 (2013)) and estrogen receptor positive (ER^+) breast tumors were used under IRB-approved protocols (WCM 1410015560 and 1603017108). All patients provided written informed consent. Cells were isolated and maintained in DMEM, supplemented with 10% fetal calf serum (FCS), 100U/ml penicillin/streptomycin and 1% sodium pyruvate (ThermoFisher Scientific). Cells were grown at 37° C. in a humidified atmosphere with 5% CO2. See Method Details for cell growth and proliferation work specific procedures.
as §2

[3] = Allas et al. 2016; cited from earlier work
[4] = system: MCF7, MDA-MB-468 and MDA-MB-231 cells; experiment: Cy3-tagged UAG binding assay in 3D cultures; parameters: species or system human; details: 1 μM Cy3-tagged UAG with 10% serum; live confocal imaging
Protocol: Binding Assays. Cy3-tagged UAG (Pepmic Co, LtD) binding assays were performed in 3D cultures of breast cancer cells. MCF7, […] and MDA-MB231 cells were seeded at a density of 3,000 cells per well in Matrigel in optical-bottom 96-well plates. Cells were serum-starved overnight. Hoechst nuclear stain was added prior to the live cell imaging. 1 μM Cy3-tagged UAG with 10% serum was then added and time-lapse confocal imaging was performed to examine the localization of peptide binding.

[5] = system: panel of breast cancer cell lines; experiment: 3D cell growth assay in a panel of breast cancer cell lines; format: cell-based, human; details: 100 pM
Protocol: as §1, with “All cell lines were grown at 37° C. with 5% CO2 in a humidified environment. Mycoplasma detection of all cell lines were tested and negative results were observed.” left out
Cell Growth and Proliferation Assays. […] The total number of cells, or the number of dead or proliferating cells was assessed using Hoechst, EarlyTox Dead Assay Kit (Molecular Devices), or Click-IT EdU Kit (ThermoFisher Scientific), respectively, and analyzed according to the manufacturer's protocols. […] The number of nuclei/Ethidium Homodimer-III+/EdU+ cells were counted using Imaris software (Bitplane).

With `N#CC(=C(/N)Sc1ccccc1N)/C(C#N)=C(\N)Sc1ccccc1N` [U0126] the forskolin-stimulated cell growth (MCF7 cells; 10 μM forskolin, 3D) was “significant reduction”, the forskolin-stimulated cell growth (MDA-MB-468 cells; 3D) was “significant reduction” and the forskolin-stimulated cell growth (MDA-MB-231 cells) was “significant reduction”. The “serum-stimulated EKAR (ERK) activity” value [1] was “inhibited”.

In the case of `CCCCCCOC(=O)[C@]1(O)C[C@@H]2O[C@@]1(C)n1c3ccccc3c3c4c(c5c6ccccc6n2c5c31)C(=O)NC4` [KT5720], the “serum-stimulated growth (cell number)” value (MCF7 cells; serum) is reported as “significant reduction in cell number” and the “growth of MDA-MB-468 cells” value (MDA-MB-468 cells) is reported as “suppress the growth”.

With `NC1(c2ccc(-c3nc4ccn5c(=O)[nH]nc5c4cc3-c3ccccc3)cc2)CCC1` [MK2206] the forskolin-stimulated cell growth (MDA-MB-468 cells; 3D) was “inhibit”, the “cell growth in the presence of serum” value (MDA-MB-468 cells; serum) was “inhibited” and the forskolin-stimulated cell growth (MDA-MB-231 cells) was “inhibit”. For the same compound, the “cell growth in the presence of serum” value (MDA-MB-231 cells) was “inhibited”.

For `Nc1ncnc2c1ncn2C1CCCO1` (stereo not shown) [SQ22536], the “serum-stimulated growth (cell number)” value (MCF7 cells; serum) was “significant reduction in cell number” and the “growth of MDA-MB-468 cells” value (MDA-MB-468 cells) was “suppress the growth”.

For “SPEHQRVQ (also: cyclic, ring type not given here) [AZP531]”, the “potency compared to doxorubicin” value (MCF7 cells; 3D, serum) was “greater potency than doxorubicin”, the “serum-stimulated growth of cells” value (MCF7 cells; 3D, serum, dose-response) was “dose-dependent inhibition” and the “extent of cell number reduction” value (MCF7 cells; 3D, serum, unlike doxorubicin) was “did not reduce cell number beyond that which was stimulated by serum”. For the same compound, the “potency compared to doxorubicin” value (MDA-MB-468 cells; 3D, serum) was “greater potency than doxorubicin”, the “serum-stimulated growth of cells” value (MDA-MB-468 cells; 3D, serum, dose-response) was “dose-dependent inhibition” and the “extent of cell number reduction” value (MDA-MB-468 cells; 3D, serum, unlike doxorubicin) was “did not reduce cell number beyond that which was stimulated by serum”. The “tumor cell growth (tumor volume)” value (J110 allografts) was “suppression of cell growth”, the “tumor cell growth (tumor volume)” value (MDA-MB-468 xenografts) was “suppression of cell growth” and the “serum-stimulated growth of patient-derived TNBC cells” value ([2]; dose-response) was “dose-dependent inhibition”. For the same compound, the “potency compared to doxorubicin” value ([2]; patient-derived TNBC cells, serum) was “greater potency than doxorubicin”, the “extent of cell number reduction” value ([2]; patient-derived TNBC cells, serum, unlike doxorubicin) was “did not reduce cell number beyond that which was stimulated by serum” and the “pharmacokinetic properties relative to unacylated ghrelin” value [3] was “better pharmacokinetic properties than unacylated ghrelin”. The safety profile [3] was “established safety profile”.

With `Nc1cc(C(F)(F)F)c(-c2cc(N3CCOCC3)nc(N3CCOCC3)n2)cn1` [BKM120] the “cell growth in the presence of serum” value (MDA-MB-468 cells; serum) was “inhibited” and the “cell growth in the presence of serum” value (MDA-MB-231 cells) was “inhibited”.

With “Cy3-labeled unacylated ghrelin: Cy3-tagged UAG (Pepmic Co, LtD) used for binding assays (GSSFLSPEHQRVQQRKESKKPPAKLQP; also: Cy3 label, position not given here; UniProt Q9UBU3 24-50, looked up)” the “binding to responsive and non-responsive cells” value [4] was “Binding”.

With “GSS(n-octanoyl)FLSPEHQRVQQRKESKKPPAKLQPR (GSS(Octanoyl)FLSPEHQRVQQRKESKKPPAKLQPR) [acyl ghrelin]” the “breast cancer cell growth in serum-stimulated conditions (FIG. 15G)” value [5] was “inhibited breast cancer cell growth”.

In the case of `Nc1ncnc2c1ncn2[C@@H]1O[C@@H]2CO[P@@](O)(=S)O[C@H]2[C@H]1O` [cAMPS-RP], the “serum-stimulated growth (cell number)” value (MCF7 cells; serum) is reported as “significant reduction in cell number” and the “growth of MDA-MB-468 cells” value (MDA-MB-468 cells) is reported as “suppress the growth”.
